In paper doi:10.1101/2025.01.28.635346v1 (bioRxiv, 2025):
Bridge positions count the residues as written; N and C are the ends. Side chains are listed from the residue outwards. Peptide text beside a SMILES is read from it. * marks the point of attachment. Butanoyl(4-(4-I-phenyl)) = O=C(CCCc1ccc(I)cc1)*; PEG2 = NCCOCCOCCC(=O)O

Key:
CHRM3 = CHRM3 (Homo sapiens, UniProt P20309); assay: Safetyscan47 GPCR Calcium Flux, Agonist; type: cell-based; conditions: for Emax: read-out: Max Response
ADRA1A = target: T1, ADRA1A (Homo sapiens, UniProt P35348); assay: Safetyscan47 GPCR Calcium Flux, Antagonist; type: cell-based; conditions: for Emax: read-out: Max Response
T1 sequence (P35348 1-466): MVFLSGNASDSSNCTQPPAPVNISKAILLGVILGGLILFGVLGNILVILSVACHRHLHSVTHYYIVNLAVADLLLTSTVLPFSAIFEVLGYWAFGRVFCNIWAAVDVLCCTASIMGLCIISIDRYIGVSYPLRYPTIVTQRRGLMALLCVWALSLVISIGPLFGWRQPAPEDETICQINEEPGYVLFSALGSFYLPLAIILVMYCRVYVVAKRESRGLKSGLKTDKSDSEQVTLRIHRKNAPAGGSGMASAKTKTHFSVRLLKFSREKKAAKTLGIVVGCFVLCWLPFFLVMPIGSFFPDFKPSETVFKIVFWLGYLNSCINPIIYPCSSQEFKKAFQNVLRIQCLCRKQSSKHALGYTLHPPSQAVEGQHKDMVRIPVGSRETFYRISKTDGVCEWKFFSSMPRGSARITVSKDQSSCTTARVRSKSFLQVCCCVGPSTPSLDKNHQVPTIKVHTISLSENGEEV

HTR2A = HTR2A (Homo sapiens, UniProt P28223); assay: Safetyscan47 GPCR Calcium Flux, Antagonist; type: cell-based; conditions: for Emax: read-out: Max Response
Sequence of HTR2A (P28223 whole entry): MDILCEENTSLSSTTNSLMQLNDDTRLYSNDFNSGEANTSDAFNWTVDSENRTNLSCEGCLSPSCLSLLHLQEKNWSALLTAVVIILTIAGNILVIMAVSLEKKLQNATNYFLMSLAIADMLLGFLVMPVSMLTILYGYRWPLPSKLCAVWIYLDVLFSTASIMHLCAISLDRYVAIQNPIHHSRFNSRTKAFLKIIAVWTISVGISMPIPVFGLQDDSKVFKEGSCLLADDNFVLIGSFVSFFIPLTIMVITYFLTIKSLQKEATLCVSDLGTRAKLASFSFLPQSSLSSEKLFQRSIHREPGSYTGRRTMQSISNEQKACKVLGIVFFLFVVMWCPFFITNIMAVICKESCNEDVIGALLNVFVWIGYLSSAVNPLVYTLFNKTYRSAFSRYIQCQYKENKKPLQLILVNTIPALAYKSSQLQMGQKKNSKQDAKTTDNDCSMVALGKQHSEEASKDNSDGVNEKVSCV

CNR1 = CNR1 (Homo sapiens, UniProt P21554); assay: Safetyscan47 GPCR cAMP, Agonist; type: cell-based; conditions: for Emax: read-out: Max Response
HRH2 = HRH2 (Homo sapiens, UniProt P25021); assay: Safetyscan47 GPCR cAMP, Agonist; type: cell-based; conditions: for Emax: read-out: Max Response
Sequence of HRH2 (P25021 whole entry): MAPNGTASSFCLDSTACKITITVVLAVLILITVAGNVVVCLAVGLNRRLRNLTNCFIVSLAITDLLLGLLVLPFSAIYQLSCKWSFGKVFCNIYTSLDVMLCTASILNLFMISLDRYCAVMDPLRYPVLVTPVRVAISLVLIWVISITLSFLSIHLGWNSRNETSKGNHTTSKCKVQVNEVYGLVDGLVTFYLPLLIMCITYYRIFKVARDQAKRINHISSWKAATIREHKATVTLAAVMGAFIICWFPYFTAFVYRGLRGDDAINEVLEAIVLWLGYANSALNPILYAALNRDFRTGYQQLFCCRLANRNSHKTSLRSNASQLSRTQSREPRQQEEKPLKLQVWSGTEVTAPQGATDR

OPRD1 = OPRD1 (Homo sapiens, UniProt P41143); assay: Safetyscan47 GPCR cAMP, Agonist; type: cell-based; conditions: for Emax: read-out: Max Response
CAV1.2 = CAV1.2 (Homo sapiens, UniProt Q13936); assay: Safetyscan47 Ion Channel, Blocker; type: cell-based
Sequence of CAV1.2 (Q13936 whole entry): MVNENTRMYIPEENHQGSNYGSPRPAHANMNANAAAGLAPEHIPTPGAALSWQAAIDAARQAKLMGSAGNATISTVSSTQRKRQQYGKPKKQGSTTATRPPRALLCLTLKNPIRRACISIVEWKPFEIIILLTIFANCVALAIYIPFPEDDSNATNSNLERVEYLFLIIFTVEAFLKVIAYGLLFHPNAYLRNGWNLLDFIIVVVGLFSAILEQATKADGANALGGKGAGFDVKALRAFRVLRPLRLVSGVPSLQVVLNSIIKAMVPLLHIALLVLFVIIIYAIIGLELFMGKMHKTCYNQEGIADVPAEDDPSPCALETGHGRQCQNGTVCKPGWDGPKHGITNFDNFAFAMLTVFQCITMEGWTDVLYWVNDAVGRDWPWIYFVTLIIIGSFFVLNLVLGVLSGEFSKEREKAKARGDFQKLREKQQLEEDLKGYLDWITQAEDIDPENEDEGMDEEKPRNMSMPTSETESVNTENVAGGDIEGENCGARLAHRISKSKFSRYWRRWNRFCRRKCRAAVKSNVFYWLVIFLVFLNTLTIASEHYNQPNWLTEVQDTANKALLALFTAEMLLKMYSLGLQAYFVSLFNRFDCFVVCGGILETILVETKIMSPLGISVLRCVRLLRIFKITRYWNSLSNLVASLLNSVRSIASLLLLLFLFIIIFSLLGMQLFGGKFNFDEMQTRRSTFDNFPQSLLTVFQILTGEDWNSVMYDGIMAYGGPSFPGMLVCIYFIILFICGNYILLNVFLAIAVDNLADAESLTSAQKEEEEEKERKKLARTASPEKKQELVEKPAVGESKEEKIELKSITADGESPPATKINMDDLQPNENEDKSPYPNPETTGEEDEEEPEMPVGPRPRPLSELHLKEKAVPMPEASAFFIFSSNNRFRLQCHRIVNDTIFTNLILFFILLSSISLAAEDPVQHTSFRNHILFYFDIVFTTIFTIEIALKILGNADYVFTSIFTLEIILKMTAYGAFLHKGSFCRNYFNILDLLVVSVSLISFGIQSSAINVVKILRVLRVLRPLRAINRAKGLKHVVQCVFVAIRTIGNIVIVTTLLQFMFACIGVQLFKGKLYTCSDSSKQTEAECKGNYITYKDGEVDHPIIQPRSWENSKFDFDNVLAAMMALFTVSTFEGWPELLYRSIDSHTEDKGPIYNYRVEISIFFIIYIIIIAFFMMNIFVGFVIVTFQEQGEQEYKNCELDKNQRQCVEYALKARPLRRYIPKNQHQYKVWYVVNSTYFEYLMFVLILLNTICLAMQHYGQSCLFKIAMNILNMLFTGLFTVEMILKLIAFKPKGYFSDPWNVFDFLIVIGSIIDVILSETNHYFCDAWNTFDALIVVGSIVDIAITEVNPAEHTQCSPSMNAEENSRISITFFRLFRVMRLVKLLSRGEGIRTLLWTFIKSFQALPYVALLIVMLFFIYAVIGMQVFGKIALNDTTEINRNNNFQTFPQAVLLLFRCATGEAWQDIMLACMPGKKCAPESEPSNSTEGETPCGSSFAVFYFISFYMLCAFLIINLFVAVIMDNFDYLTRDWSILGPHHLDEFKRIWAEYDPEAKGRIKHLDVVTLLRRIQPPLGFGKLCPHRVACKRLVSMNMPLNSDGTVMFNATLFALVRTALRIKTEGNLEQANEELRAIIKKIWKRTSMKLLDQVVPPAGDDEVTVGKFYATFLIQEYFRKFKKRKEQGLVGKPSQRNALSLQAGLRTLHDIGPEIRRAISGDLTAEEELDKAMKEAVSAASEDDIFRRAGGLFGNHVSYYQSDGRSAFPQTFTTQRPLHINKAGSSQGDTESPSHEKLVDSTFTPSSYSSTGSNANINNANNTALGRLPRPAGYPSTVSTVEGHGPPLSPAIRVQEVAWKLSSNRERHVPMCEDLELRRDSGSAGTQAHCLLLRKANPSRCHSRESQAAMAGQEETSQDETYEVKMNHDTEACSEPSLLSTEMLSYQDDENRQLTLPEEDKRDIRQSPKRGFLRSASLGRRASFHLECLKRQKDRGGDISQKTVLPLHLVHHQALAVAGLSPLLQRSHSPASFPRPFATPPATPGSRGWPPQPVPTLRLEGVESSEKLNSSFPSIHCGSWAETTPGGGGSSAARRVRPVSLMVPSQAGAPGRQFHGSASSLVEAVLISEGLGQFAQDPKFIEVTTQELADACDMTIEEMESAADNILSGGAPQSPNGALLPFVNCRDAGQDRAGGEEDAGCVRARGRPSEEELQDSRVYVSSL
Sequence of CAV1.2 (Q08289 whole entry partner): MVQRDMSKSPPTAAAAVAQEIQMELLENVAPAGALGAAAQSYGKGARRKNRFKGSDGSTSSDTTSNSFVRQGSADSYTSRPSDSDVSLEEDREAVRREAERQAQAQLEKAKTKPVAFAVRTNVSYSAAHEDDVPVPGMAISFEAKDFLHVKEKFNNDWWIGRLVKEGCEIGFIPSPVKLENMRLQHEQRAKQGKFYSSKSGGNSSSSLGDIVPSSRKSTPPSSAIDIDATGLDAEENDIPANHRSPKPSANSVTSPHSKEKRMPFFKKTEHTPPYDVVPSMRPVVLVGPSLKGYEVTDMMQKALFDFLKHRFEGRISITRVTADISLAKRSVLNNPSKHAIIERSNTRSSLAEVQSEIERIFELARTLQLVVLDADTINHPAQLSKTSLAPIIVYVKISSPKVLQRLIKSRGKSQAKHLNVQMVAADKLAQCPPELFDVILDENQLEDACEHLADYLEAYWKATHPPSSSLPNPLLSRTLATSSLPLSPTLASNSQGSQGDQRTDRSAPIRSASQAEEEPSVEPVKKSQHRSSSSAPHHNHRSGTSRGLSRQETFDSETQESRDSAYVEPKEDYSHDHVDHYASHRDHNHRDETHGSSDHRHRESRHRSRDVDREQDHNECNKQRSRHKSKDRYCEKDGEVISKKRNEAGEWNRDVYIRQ
Sequence of CAV1.2 (P54289 25-1103 partner): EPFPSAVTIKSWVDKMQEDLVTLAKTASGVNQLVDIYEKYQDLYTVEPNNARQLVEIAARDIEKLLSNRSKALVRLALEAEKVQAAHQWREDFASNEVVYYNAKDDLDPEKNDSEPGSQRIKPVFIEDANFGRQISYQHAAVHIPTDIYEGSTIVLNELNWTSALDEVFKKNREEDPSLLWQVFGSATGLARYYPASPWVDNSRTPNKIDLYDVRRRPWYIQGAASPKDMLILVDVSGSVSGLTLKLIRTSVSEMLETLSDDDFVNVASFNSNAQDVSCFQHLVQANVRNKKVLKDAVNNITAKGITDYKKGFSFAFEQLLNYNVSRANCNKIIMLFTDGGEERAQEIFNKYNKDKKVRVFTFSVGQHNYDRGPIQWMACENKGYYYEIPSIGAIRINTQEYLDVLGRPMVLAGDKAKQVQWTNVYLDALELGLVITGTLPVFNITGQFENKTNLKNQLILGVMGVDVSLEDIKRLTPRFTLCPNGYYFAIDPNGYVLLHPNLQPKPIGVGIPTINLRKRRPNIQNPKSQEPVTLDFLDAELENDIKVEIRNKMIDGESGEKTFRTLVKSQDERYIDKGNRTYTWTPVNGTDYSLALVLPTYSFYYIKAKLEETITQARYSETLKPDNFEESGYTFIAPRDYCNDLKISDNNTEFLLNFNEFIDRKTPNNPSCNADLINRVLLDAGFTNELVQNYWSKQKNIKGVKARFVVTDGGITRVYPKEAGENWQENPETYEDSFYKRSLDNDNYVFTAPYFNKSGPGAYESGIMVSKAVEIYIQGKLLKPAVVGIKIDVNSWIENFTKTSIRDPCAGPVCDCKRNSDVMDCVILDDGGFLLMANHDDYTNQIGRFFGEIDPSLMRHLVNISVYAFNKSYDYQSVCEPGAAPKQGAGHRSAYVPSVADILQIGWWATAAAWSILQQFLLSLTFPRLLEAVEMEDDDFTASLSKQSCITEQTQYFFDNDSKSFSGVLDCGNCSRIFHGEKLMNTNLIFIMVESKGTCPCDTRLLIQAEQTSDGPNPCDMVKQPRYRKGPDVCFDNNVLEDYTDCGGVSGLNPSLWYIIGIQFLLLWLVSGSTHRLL

AChE = AChE (Homo sapiens, UniProt P22303); assay: Safetyscan47 Non-Kinase Enzymes Enzymatic, Inhibitor; type: biochemical; conditions: for Emax: read-out: Max Response
[1] = Solubility and aggregation; type: physicochemical
[2] = Pharmacokinetics in female Sprague-Dawley rats; type: in vivo, rat
[3] = Tissue distribution in female Balb/c mice; type: in vivo, mouse; conditions: for Brain concentration / Colon concentration / Kidneys concentration / Liver concentration / Mammary concentration / Ovaries concentration / Plasma Concentration / Lungs concentration: Balb/c mice
[4] = female, Sprague-Dawley, rat, plasma, 30 mg/kg
[5] = female, Sprague-Dawley, rat, plasma, iv, 30 mg/kg
[6] = 3 hr, Mouse 1 (individual animal)
[7] = 3 hr, Mouse 2 (individual animal)
[8] = 3 hr, Mouse 3 (individual animal)
[9] = 8 hr, Mouse 1 (individual animal)
[10] = 8 hr, Mouse 2 (individual animal)
[11] = 8 hr, Mouse 3 (individual animal)
[12] = female, Balb/c, mouse, brain, ip, 30 mg/kg
[13] = female, Balb/c, mouse, breast tissue including mammary gland, ip, 30 mg/kg
[14] = female, Balb/c, mouse, colon, ip, 30 mg/kg
[15] = female, Balb/c, mouse, kidney, ip, 30 mg/kg
[16] = female, Balb/c, mouse, kidneys, ip, 30 mg/kg
[17] = female, Balb/c, mouse, liver, ip, 30 mg/kg
[18] = female, Balb/c, mouse, lungs, ip, 30 mg/kg
[19] = female, Balb/c, mouse, ovaries, ip, 30 mg/kg
[20] = female, Balb/c, mouse, plasma, ip, 30 mg/kg

Compound: CC[C@H](C)[C@H](NC(=O)[C@H](CC(C)C)NC(=O)[C@H](CC(=O)O)NC(=O)CNC(=O)[C@H](CCCNC(=N)N)NC(=O)[C@@H](NC(=O)[C@H](Cc1ccccc1)NC(=O)[C@H](Cc1ccc(O)cc1)NC(=O)[C@@H]1CCC(=O)NCC(=O)NCC(=O)N[C@@H](CCCNC(=N)N)C(=O)NCC(=O)N[C@@H](Cc2c[nH]cn2)C(=O)N[C@@H](C(C)C)C(=O)N2CCC[C@H]2C(=O)N1)C(C)C)C(=O)N[C@@H](CO)C(=O)N[C@@H](Cc1ccccc1)C(=O)N[C@@H](Cc1ccc(O)cc1)C(=O)N[C@@H](CCCCN)C(=O)O [lassotide 36] (GGRGHVPEYFVRGDLISFYK-OH; lactam N-8)
- EC50 (CHRM3): > 45 µM
- Emax (CHRM3): 2.89%
- IC50 (ADRA1A): > 45 µM
- Emax (ADRA1A): 9.9%
- IC50 (HTR2A): > 45 µM
- Emax (HTR2A): 5.08%
- EC50 (CNR1): > 45 µM
- Emax (CNR1): 1.38%
- EC50 (HRH2): > 45 µM
- Emax (HRH2): 0%
- EC50 (OPRD1): > 45 µM
- Emax (OPRD1): 6.18%
- Emax (CAV1.2): 0%
- IC50 (CAV1.2): > 45 µM
- IC50 (AChE): > 45 µM
- Emax (AChE): 0%

Compound: CC[C@H](C)[C@H](NC(=O)[C@H](CC(C)C)NC(=O)[C@H](CC(=O)O)NC(=O)CNC(=O)[C@H](CCCNC(=N)N)NC(=O)[C@@H](NC(=O)[C@H](Cc1ccccc1)NC(=O)[C@H](Cc1ccc(O)cc1)NC(=O)[C@@H]1CCC(=O)NCC(=O)NCC(=O)N[C@@H](CCCNC(=N)N)C(=O)NCC(=O)N[C@@H](Cc2c[nH]cn2)C(=O)N[C@@H](C(C)C)C(=O)N2CCC[C@H]2C(=O)N1)C(C)C)C(=O)N[C@@H](CO)C(=O)N[C@@H](Cc1ccccc1)C(=O)N[C@@H](Cc1ccc(O)cc1)C(=O)N[C@@H](CCCCNC(=O)CCOCCOCCNC(=O)CCCc1ccc(I)cc1)C(=O)O [lassotide 47] (GGRGHVPEYFVRGDLISFYK([PEG2-Butanoyl(4-(4-I-phenyl))])-OH; lactam N-8)
- Solubility in DMSO ([1]; DMSO (text: also formulations containing 10-20% DMSO and PEG)): > 200 mg/mL
- solubility ([1]; acetate buffer, pH 4.5, aqueous buffer): ≥ 30 mg/mL
- AUC(0-inf) [2, 4]: 2740 µg·h/mL
- C0 [2, 4]: 441 µg/mL
- Cmax [2, 4]: 369 µg/mL
- AUC(0-t) [2, 5]: 2360 µg·h/mL
- Tmax [2, 5]: 0.2 h
- Vd [2, 5]: 0.1 L/kg
- clearance [2, 5]: 0.2 mL/min/kg
- half-life [2, 5]: 8.5 h
- AUCINF ([2]; rat 30 mg/kg, animal 1M001): 2670 µg·h/mL
- AUClast ([2]; rat 30 mg/kg, animal 1M001): 2310 µg·h/mL
- C0 ([2]; rat 30 mg/kg, animal 1M001): 383 µg/mL
- CL ([2]; rat 30 mg/kg, animal 1M001): 0.187 mL/min/kg
- Cmax ([2]; rat 30 mg/kg, animal 1M001): 327 µg/mL
- Vz ([2]; rat 30 mg/kg, animal 1M001): 0.133 L/kg
- t1/2 ([2]; rat 30 mg/kg, animal 1M001): 8.2 h
- AUCINF ([2]; rat 30 mg/kg, animal 1M002): 2370 µg·h/mL
- AUClast ([2]; rat 30 mg/kg, animal 1M002): 2110 µg·h/mL
- C0 ([2]; rat 30 mg/kg, animal 1M002): 370 µg/mL
- CL ([2]; rat 30 mg/kg, animal 1M002): 0.211 mL/min/kg
- Cmax ([2]; rat 30 mg/kg, animal 1M002): 336 µg/mL
- Vz ([2]; rat 30 mg/kg, animal 1M002): 0.144 L/kg
- t1/2 ([2]; rat 30 mg/kg, animal 1M002): 7.9 h
- AUCINF ([2]; rat 30 mg/kg, animal 1M003): 3180 µg·h/mL
- AUClast ([2]; rat 30 mg/kg, animal 1M003): 2650 µg·h/mL
- C0 ([2]; rat 30 mg/kg, animal 1M003): 571 µg/mL
- CL ([2]; rat 30 mg/kg, animal 1M003): 0.157 mL/min/kg
- Cmax ([2]; rat 30 mg/kg, animal 1M003): 443 µg/mL
- Vz ([2]; rat 30 mg/kg, animal 1M003): 0.127 L/kg
- t1/2 ([2]; rat 30 mg/kg, animal 1M003): 9.3 h
- Brain concentration [3, 6]: 985 ng/g
- Colon concentration [3, 6]: 6100 ng/g
- Kidneys concentration [3, 6]: 11600 ng/g
- Liver concentration [3, 6]: 4430 ng/g
- Mammary concentration [3, 6]: 21700 ng/g
- Ovaries concentration [3, 6]: 27800 ng/g
- Plasma Concentration [3, 6]: 192 µg/mL
- Brain concentration [3, 7]: 968 ng/g
- Colon concentration [3, 7]: 6010 ng/g
- Kidneys concentration [3, 7]: 11500 ng/g
- Liver concentration [3, 7]: 4000 ng/g
- Lungs concentration [3, 7]: 32400 ng/g
- Mammary concentration [3, 7]: 18900 ng/g
- Ovaries concentration [3, 7]: 25700 ng/g
- Plasma Concentration [3, 7]: 168 µg/mL
- Brain concentration [3, 8]: 756 ng/g
- Colon concentration [3, 8]: 4370 ng/g
- Kidneys concentration [3, 8]: 9960 ng/g
- Liver concentration [3, 8]: 3250 ng/g
- Lungs concentration [3, 8]: 36100 ng/g
- Mammary concentration [3, 8]: 14800 ng/g
- Ovaries concentration [3, 8]: 20800 ng/g
- Plasma Concentration [3, 8]: 160 µg/mL
- Brain concentration [3, 9]: 974 ng/g
- Colon concentration [3, 9]: 2940 ng/g
- Kidneys concentration [3, 9]: 12200 ng/g
- Liver concentration [3, 9]: 4440 ng/g
- Lungs concentration [3, 9]: 41500 ng/g
- Mammary concentration [3, 9]: 12200 ng/g
- Ovaries concentration [3, 9]: 18700 ng/g
- Plasma Concentration [3, 9]: 117 µg/mL
- Brain concentration [3, 10]: 617 ng/g
- Colon concentration [3, 10]: 2460 ng/g
- Kidneys concentration [3, 10]: 8480 ng/g
- Liver concentration [3, 10]: 2430 ng/g
- Lungs concentration [3, 10]: 31300 ng/g
- Mammary concentration [3, 10]: 8100 ng/g
- Ovaries concentration [3, 10]: 14700 ng/g
- Plasma Concentration [3, 10]: 106 µg/mL
- Brain concentration [3, 11]: 406 ng/g
- Colon concentration [3, 11]: 2190 ng/g
- Kidneys concentration [3, 11]: 6640 ng/g
- Liver concentration [3, 11]: 2230 ng/g
- Lungs concentration [3, 11]: 16000 ng/g
- Mammary concentration [3, 11]: 5390 ng/g
- Ovaries concentration [3, 11]: 8870 ng/g
- Plasma Concentration [3, 11]: 77 µg/mL
- tissue level at time at 3 h [3, 12]: 903 ng/g
- tissue level at time at 8 h [3, 12]: 666 ng/g
- tissue level at time at 3 h [3, 13]: 18500 ng/g
- tissue level at time at 8 h [3, 13]: 8560 ng/g
- tissue level at time at 3 h [3, 14]: 5490 ng/g
- tissue level at time at 8 h [3, 14]: 2530 ng/g
- tissue level at time at 3 h [3, 15]: 11000 ng/g
- tissue level at time at 8 h [3, 15]: 9110 ng/g
- tissue level at time at 3 h [3, 16]: 11000 ng/g
- tissue level at time at 8 h [3, 16]: 9110 ng/g
- tissue level at time at 3 h [3, 17]: 3890 ng/g
- tissue level at time at 8 h [3, 17]: 3030 ng/g
- tissue level at time at 3 h [3, 18]: 57200 ng/g
- tissue level at time at 8 h [3, 18]: 29600 ng/g
- tissue level at time at 3 h [3, 19]: 24800 ng/g
- tissue level at time at 8 h [3, 19]: 14100 ng/g
- level at 3 h [3, 20]: 173 µg/mL
- level at 8 h [3, 20]: 100 µg/mL
- EC50 (CHRM3): > 45 µM
- Emax (CHRM3): 1.93%
- IC50 (ADRA1A): > 45 µM
- Emax (ADRA1A): 2.58%
- IC50 (HTR2A): > 45 µM
- Emax (HTR2A): 10.7%
- EC50 (CNR1): > 45 µM
- Emax (CNR1): 29.1%
- EC50 (HRH2): > 45 µM
- Emax (HRH2): 0%
- EC50 (OPRD1): > 45 µM
- Emax (OPRD1): 17.4%
- Emax (CAV1.2): 0%
- IC50 (CAV1.2): > 45 µM
- IC50 (AChE): > 45 µM
- Emax (AChE): 7.88%
